Measurements: PMC10611374, “Characterization of the Hemolytic Activity of Mastoparan Family Peptides from Wasp Venoms” (Toxins, 2023)
Several values for one entry are separate records, joined by “and”; a condition that tells them apart may be missing. Identical values can stand only once. Like-named read-outs stand apart in the source and are kept apart here. Ends that are not written are not given here.

Legend:
[1] = tested on: human red blood cells (HRBCs); assay: Hemolytic assay on human red blood cells; type: cell-based; details: human red blood cells 5% (v/v) in PBS, 37 °C 1 h, OD 540 nm; for HRBC Hemolysis (hemolysis rate at 320 μg/mL): peptide 320 μg/mL (highest dose), PBS = 0%, mean of three independent experiments; for EC50: four-parameter logistic fit of mean of three independent experiments, '-' = hemolytic activity too low to calculate the EC50
Experimental: (§1) Fresh human red blood cells were obtained from healthy donors and collected in a sterile blood collecting vessel covered with sodium citrate (1:9) as the anticoagulating agent. Rat red blood cells were collected from the abdominal aorta in sterile blood-collecting vessels coated with sodium citrate (1:4) after the SD rats were anaesthetized with isoflurane. Then, the cells were washed three times with phosphate-buffered saline via centrifugation (1000× g, 4 °C, 5 min) and prepared in a sterile 96-well polypropylene plate to achieve a final concentration of 5% (v/v). Twofold dilutions of the peptides were prepared in PBS to 100 μL and mixed with an equal volume of HRBCs/RRBCs suspension to final peptide concentrations ranging from 10 to 320 μg/mL. After coincubation at 37 °C for 1 h, the plate was centrifuged (2000× g, 4 °C, 20 min), and 100 μL of supernatant was taken for optical density measurements at 540 nm using a microtiter plate reader (SpectraMax 190). The HRBCs/RRBCs were assayed with PBS (blank) or 1% Triton X-100 (positive control) to represent 0% and 100% hemolysis, respectively. The percent hemolysis was calculated according to the following equation: Hemolysis Rate (%) = 100% × (Amastoparans − Ablank)/(ATriton X-100 − Ablank). Three independent experiments were performed, and the mean hemolysis rate at each dose was used to calculate the EC50 in Sigmaplot software.
(§2) Statistical analysis was performed with GraphPad Prism software (version 5.0, San Diego, CA, USA). A two-tailed Student’s t-test was used to calculate the statistical probability in this study. Differences in the data were considered to be statistically significant when the p value was equal to or less than 0.05. The curve of hemolysis induced by wasp mastoparans was generated in SigmaPlot 12.5 software, and the EC50 was calculated according to the equation (Four Parameter Logistic Curve): y = min + (max − min)/(1 + (x/EC50)^−Hillslope). The heat map of hemolytic activity of mastoparan peptide was analysed in R software which is based on the value of log2(EC50).

[2] = tested on: rat red blood cells (RRBCs); assay: Hemolytic assay on rat red blood cells; type: cell-based, SD rats; details: rat red blood cells 5% (v/v) in PBS, 37 °C 1 h, OD 540 nm; for RRBC Hemolysis (hemolysis rate at 320 μg/mL): peptide 320 μg/mL (highest dose), PBS = 0%, mean of three independent experiments; for EC50: four-parameter logistic fit of mean of three independent experiments, '-' = hemolytic activity too low to calculate the EC50
Experimental: as §1, §2

[3] = peptide 10-320 μg/mL twofold dilutions, 1% Triton X-100 = 100%, read-out: HRBC EC50 (hemolytic activity)
[4] = peptide 10-320 μg/mL twofold dilutions, 1% Triton X-100 = 100%, read-out: RRBC EC50 (hemolytic activity)
[5] = Table 2 series, read-out: HRBC EC50 (hemolytic activity), Protopolybia-MPIII and mutants
[6] = Table 2 series, read-out: RRBC EC50 (hemolytic activity), Protopolybia-MPIII and mutants

Row | Substance | HRBC Hemolysis (hemolysis rate at 320 μg/mL) ([1]; 1% Triton X-100 = 100%) [%] | EC50 [1, 3] | RRBC Hemolysis (hemolysis rate at 320 μg/mL) ([2]; 1% Triton X-100 = 100%) [%] | EC50 [2, 4] [µM] | EC50 [1, 5] [µM] | EC50 [2, 6] [µM] | EC50 ([1]; peptide 10-320 μg/mL twofold dilutions, 1% Triton X-100 = 100%, listed as Polybia-MPII, read-out: HRBC EC50 (hemolytic activity)) [µM] | EC50 ([1]; peptide 10-320 μg/mL twofold dilutions, 1% Triton X-100 = 100%, listed as Polybia-MPI, read-out: HRBC EC50 (hemolytic activity)) [µM]
1 | INLFGFAALVKKFL-NH2 [Mastoparan-T4] | 100 | 28.5 ± 2.3 µM | 100 | 17.6 ± 2.4 |  |  |  | 
2 | INWLKLGKKILGAL-NH2 [PDD-B] | 100 | 48.5 ± 3.4 µM | 100 | 55.6 ± 4.1 |  |  |  | 
3 | INWLKLGKAVSDIL-NH2 [Protopolybia-MPIII-9] |  |  |  |  | 167 ± 2.7 | 161.7 ± 1.3 |  | 
4 | INWLKLGKAVIDIL-NH2 [Protopolybia-MPIII-4] |  |  |  |  | 11.3 ± 6.2 | 19.8 ± 1.2 |  | 
5 | INWKGIAAMAKKLL-NH2 [Mastoparan-X(V)] | 29 | ≤ 400 µM and 349 µM | 70 | 156 ± 2.4 |  |  |  | 
6 | FDLLGLVKSVVSAL-NH2 [EpVP2b] | 100 | 34.1 ± 3.5 µM | 100 | 50.6 ± 2.6 |  |  |  | 
7 | LNLKGLFKKVASLLT [Eumenitin-F] | 67 | 157 ± 2.6 µM | 44 | 207.1 ± 2 |  |  |  | 
8 | INWLKLGKAVIDAL-NH2 [Protopolybia-MPIII] | 96 | 61.9 ± 8.3 µM | 93 | 34.6 ± 2.8 |  | 42.8 ± 2.1 |  | 
9 | INWLKLGKAVIAAL-NH2 [Protopolybia-MPIII-3] |  |  |  |  | 16.8 ± 1 | 21.5 ± 1.2 |  | 
10 | IKWKAILDAVKKVL-NH2 [Mastoparan-A] | 7 |  | 56 | 183 ± 3.4 |  |  |  | 
11 | INWLKLGKAIIDAL-NH2 [Agelaia-MPI] | 100 | 3.7 ± 0.14 µM | 98 | 7 ± 0.7 |  |  |  | 
12 | FDLLGLVKKVASAL-NH2 [EpVP2a] | 79 | 152 ± 6.3 µM | 41 | 239 ± 7.6 |  |  |  | 
13 | INWLKLGKMVIDAL-NH2 [Polybia-MP II] | 91 | 23.3 ± 1.4 µM | 100 | 29.1 ± 1.5 |  |  | ≤ 400 | 
14 | IDWKKLLDAAKQIL-NH2 [Polybia-MP I] | 56 | 177 ± 7 µM | 100 | 51.4 ± 2.2 |  |  |  | ≤ 400
15 | IDWLKLRVISVIDL-NH2 [Polybia-MP IV] | 0 | > 400 µM | 0 | > 400 |  |  |  | 
16 | INMKAVAAVAKKPL-NH2 [MP-VB2] | 0 |  | 0 |  |  |  |  | 
17 | INWKKIFQKVKNLV-NH2 [PDD-A] | 30 | 354 ± 44.8 µM | 27 |  |  |  |  | 
18 | INLRGFAALVKKFL-NH2 [Mastoparan-T3] | 100 | 112 ± 8 µM | 100 | 51.6 ± 2.1 |  |  |  | 
19 | INLKVFAALVKKLL-NH2 [Mastoparan-T2] | 100 | 11.8 ± 3.1 µM | 100 | 21.1 ± 2.4 |  |  |  | 
20 | VDWKKIGQHILSVL-NH2 [Mastoparan-J] | 100 | 69.5 ± 3.2 µM | 100 | 60.1 ± 1.3 |  |  |  | 
